According to US20220168430A1, “THERAPEUTIC METHODS FOR TREATING HEPATITIS B” (priority 2019, published 2022):
Like-named read-outs stand apart in the source and are kept apart here.

How the values were obtained:
[1] = tested on: HBV DNA; assay: HBV DNA in culture supernatants of HBV-infected PHH by qPCR, single agents and double combinations (Examples 1-4); type: cell-based, HBV genotype D; primary human hepatocytes; conditions: Hepatitis B virus; for inhibition at 0.005 µM / inhibition at 0.015 µM / inhibition at 0.044 µM / inhibition at 0.133 µM / inhibition at 0.4 µM: HBV DNA, (V) 0.00 μg/mL; for inhibition at 0.005 µM: (VI) 0.005 μM; for inhibition at 0.015 µM: (VI) 0.015 μM; for inhibition at 0.044 µM: (VI) 0.044 μM; for inhibition at 0.133 µM: (VI) 0.133 μM; for inhibition at 0.4 µM: (VI) 0.400 μM; for EC50: HBV DNA endpoint, PHH, determined in an earlier separate experiment, read-out: EC50; for inhibition at 0.05 µM: (VII) 0.05 μM alone; for inhibition at 0.15 µM: (VII) 0.15 μM alone; for inhibition at 0.44 µM: (VII) 0.44 μM alone; for inhibition at 1.33 µM: (VII) 1.33 μM alone; for inhibition at 4 µM: (VII) 4.00 μM alone
Procedure: (§1) The day PHH seeding date was defined as day 0.
(§2) The PHH were infected with 400 HBV GE/cell of HBV genotype D type HBV on day 1.
(§3) The test articles were further diluted with the culture medium to the final test concentrations.
(§4) All the test articles were further diluted 100 times with the culture medium. The final concentration of DMSO in the culture medium was […].
(§5) The compounds were tested at 7 concentrations, 3-fold dilution, in triplicate.
(§6) Four two-way combinations were performed on a 5×5 matrix, in triplicate plates. Transfection reagent was present in all wells. The culture medium containing the articles were refreshed every 1 or 2 days.
DNA in the culture supernatants harvested on days 8 was isolated with QIAamp 96 DNA Blood Kit (Qiagen-51162). For each sample, 100 μl of each culture supernatant was used to extract DNA. The DNA was eluted with 180 μl of AE. HBV DNA in the culture supernatants was quantified by quatitative PCR using primers and probes outlined in Table 3. Percent inhibition of HBV DNA was calculated with the formula below:
% Inh. HBV DNA=[1−value of sample/AVG. value of Medium control]×100.
(§7) Results of double combination studies were analyzed using MacSynergy II software (Prichard and Shipman, 1992).

[2] = tested on: HBsAg; assay: microbe, parasite or virus in culture; type: cell-based, HBV genotype D; primary human hepatocytes; conditions: Hepatitis B virus; for inhibition at 0.005 µM / inhibition at 0.015 µM / inhibition at 0.044 µM / inhibition at 0.133 µM / inhibition at 0.4 µM: read-out: AVERAGE % INHIBITION, HBsAg, (V) 0.00 μg/mL; for inhibition at 0.005 µM: (VI) 0.005 μM; for inhibition at 0.015 µM: (VI) 0.015 μM; for inhibition at 0.044 µM: (VI) 0.044 μM; for inhibition at 0.133 µM: (VI) 0.133 μM; for inhibition at 0.4 µM: (VI) 0.400 μM; for inhibition at 0.05 µM: (VII) 0.05 μM alone; for inhibition at 0.15 µM: (VII) 0.15 μM alone; for inhibition at 0.44 µM: (VII) 0.44 μM alone; for inhibition at 1.33 µM: (VII) 1.33 μM alone; for inhibition at 4 µM: (VII) 4.00 μM alone
Procedure: as §1, §2, §3, §4, §5, §6
HBsAg in the culture supernatants harvested on days 8 was measured using the HBsAg/ELISA kit (Autobio) according to the manual. The samples were diluted with PBS to get the signal in the range of the standard curve. Percent inhibition of HBsAg was calculated with the formula below:
% Inh. HBsAg=[1−HBsAg quantity of sample/[…] of DMSO control]×100
as §7

[3] = tested on: HBV genome; assay: IC 50 of HBV siRNA duplexes (Table A); design: species or system Hepatitis B virus; conditions: siRNA duplex
[4] = read-out: AVERAGE % INHIBITION, Exp 1
[5] = read-out: AVERAGE % INHIBITION, Exp 2

## COCCCOc1cc2c(nc1OC)-c1cc(=O)c(C(=O)O)cn1[C@H](C(C)C)C2 [(VI)]
[1]; Experiment 1
  inhibition at 0.005 µM: 0.64%
  inhibition at 0.015 µM: 6.77%
  inhibition at 0.044 µM: 10.9%
  inhibition at 0.133 µM: 26.7%
  inhibition at 0.4 µM: 21.8%
[1]; Experiment 2
  inhibition at 0.005 µM: 7.21%
  inhibition at 0.015 µM: 13.7%
  inhibition at 0.044 µM: 19.3%
  inhibition at 0.133 µM: 12.8%
  inhibition at 0.4 µM: 27.1%
[1]
  EC50: 6 nM
[2]
  EC50: 13 nM
[2]; Experiment 1
  inhibition at 0.005 µM: 19.1%
  inhibition at 0.015 µM: 43.1%
  inhibition at 0.044 µM: 62.2%
  inhibition at 0.133 µM: 74%
  inhibition at 0.4 µM: 81%
[2]; Experiment 2
  inhibition at 0.005 µM: 11.9%
  inhibition at 0.015 µM: 38.1%
  inhibition at 0.044 µM: 56.7%
  inhibition at 0.133 µM: 69.7%
  inhibition at 0.4 µM: 77.4%

## Cn1cnc(COC(=O)N[C@H]2CCc3c(C(=O)Nc4ccc(F)c(Cl)c4)ccc(F)c32)n1 [(VII)]
[1]; Exp 1
  inhibition at 0.05 µM: -22.6%
  inhibition at 0.15 µM: 28.7%
  inhibition at 0.44 µM: 50%
  inhibition at 1.33 µM: 53.9%
  inhibition at 4 µM: 56.2%
[1]; Exp 2
  inhibition at 0.05 µM: -0.21%
  inhibition at 0.15 µM: 16.1%
  inhibition at 0.44 µM: 31.2%
  inhibition at 1.33 µM: 32.9%
  inhibition at 4 µM: 41.3%
[1]
  EC50: 76 nM
[2]
  EC50: > 4000 nM
[2]; [4]
  inhibition at 0.05 µM: -14.1%
  inhibition at 0.15 µM: -5.43%
  inhibition at 0.44 µM: -9.81%
  inhibition at 1.33 µM: 29.9%
  inhibition at 4 µM: 49.6%
[2]; [5]
  inhibition at 0.05 µM: -3.42%
  inhibition at 0.15 µM: -8.51%
  inhibition at 0.44 µM: 1.73%
  inhibition at 1.33 µM: 29.4%
  inhibition at 4 µM: 48.7%

## 9m: "double stranded siRNA molecules selected from the group consisting of 1m, 2m, 3m ... 15m" (sense AGGUAUGUUGCCCGUUUGUUU; antisense UUUCCAUACAACGGGCAAACA; chemistry not fully specified; one strand is listed 3' to 5') [Compound 9m]
[3]
  IC50: 0.13 nM

## 1m: "double stranded siRNA molecules selected from the group consisting of 1m, 2m, 3m ... 15m" (sense AGGUAUGUUGCCCGUUUGUUU; antisense UUUCCAUACAACGGGCAAACA; chemistry not fully specified; one strand is listed 3' to 5') [Compound 1m]
[3]
  IC50: 1.43 nM

## 12m: "double stranded siRNA molecules selected from the group consisting of 1m, 2m, 3m ... 15m" (sense GCCGAUCCAUACUGCGGAAUU; antisense UUCGGCUAGGUAUGACGCCUU; chemistry not fully specified; one strand is listed 3' to 5') [Compound 12m]
[3]
  IC50: 0.16 nM

## 14m: "double stranded siRNA molecules selected from the group consisting of 1m, 2m, 3m ... 15m" (sense GCUCAGUUUACUAGUGCCAUU; antisense UUCGAGUCAAAUGAUCACGGU; chemistry not fully specified; one strand is listed 3' to 5') [Compound 14m]
[3]
  IC50: 0.16 nM

## 3m: "double stranded siRNA molecules selected from the group consisting of 1m, 2m, 3m ... 15m" (sense CCGUGUGCACUUCGCUUCAUU; antisense UUGGCACACGUGAAGCGAAGU; chemistry not fully specified) [Compound 3m]
[3]
  IC50: 0.06 nM

## 4m: "double stranded siRNA molecules selected from the group consisting of 1m, 2m, 3m ... 15m" (sense GCUCAGUUUACUAGUGCCAUU; antisense UUCGAGUCAAAUGAUCACGGU; chemistry not fully specified; one strand is listed 3' to 5') [Compound 4m]
[3]
  IC50: 0.31 nM

## 8m: "double stranded siRNA molecules selected from the group consisting of 1m, 2m, 3m ... 15m" (sense GCUCAGUUUACUAGUGCCAUU; antisense UUCGAGUCAAAUGAUCACGGU; chemistry not fully specified; one strand is listed 3' to 5') [Compound 8m]
[3]
  IC50: 0.24 nM

## 6m: "double stranded siRNA molecules selected from the group consisting of 1m, 2m, 3m ... 15m" (sense CUGGCUCAGUUUACUAGUGUU; antisense UUGACCGAGUCAAAUGAUCAC; chemistry not fully specified; one strand is listed 3' to 5') [Compound 6m]
[3]
  IC50: 0.05 nM

## 11m: "double stranded siRNA molecules selected from the group consisting of 1m, 2m, 3m ... 15m" (sense GCCGAUCCAUACUGCGGAAUU; antisense UUCGGCUAGGUAUGACGCCUU; chemistry not fully specified; one strand is listed 3' to 5') [Compound 11m]
[3]
  IC50: 0.31 nM

## 5m: "double stranded siRNA molecules selected from the group consisting of 1m, 2m, 3m ... 15m" (sense CCGUGUGCACUUCGCUUCAUU; antisense UUGGCACACGUGAAGCGAAGU; chemistry not fully specified) [Compound 5m]
[3]
  IC50: 0.06 nM

## 2m: "double stranded siRNA molecules selected from the group consisting of 1m, 2m, 3m ... 15m" (sense GCUCAGUUUACUAGUGCCAUU; antisense UUCGAGUCAAAUGAUCACGGU; chemistry not fully specified; one strand is listed 3' to 5') [Compound 2m]
[3]
  IC50: 0.37 nM
